Assay results taken from publication PMC11597207, “Synthesis and Anti-Inflammatory and Analgesic Potentials of Ethyl 2-(2,5-Dioxo-1-Phenylpyrrolidin-3-yl)-2-Methylpropanoate” (Pharmaceuticals, 2024).
Several values for one entry are separate records, joined by “and”; a condition that tells them apart may be missing. Identical values can stand only once.

Columns and labels:
Assay type in all cases: in vivo
mice [1] = test: Hot plate antinociceptive test
[2] = test system: carrageenan-induced paw edema; test: Carrageenan-induced paw edema model; details: mice
Method: The anti-inflammatory activity of MAK01 was evaluated through a carrageenan-induced paw edema model. The mice, with weights ranging from 25 to 30 g, were separated into five distinct groups, these being Vehicle Group 1, Aspirin Group 2, and different concentrations of MAK01 in Groups 3–5. Each of these groups comprised five mice. The negative control group in the experiment received a specific solution comprising normal saline, DMSO, and Tween-80. The mixture contained 94% normal saline, 5% DMSO, and 1% Tween-80, delivered at a concentration of 10 mL per kg. In contrast, the positive control group in the assay received the comparator aspirin at a precise dose of 10 mg/kg. The test samples were administered at doses of 10 mg/kg, 20 mg/kg, and 30 mg/kg, given intra-peritoneally. After 30 min, a 2% carrageenan suspension (0.2 mL) was administered to each mouse in every group via a subcutaneous injection in the hind paw. In the experiment, a plethysmometer was used to precisely measure inflammation and edema. These measurements were taken at multiple time points both prior to and following the carrageenan administration. Specifically, the readings were recorded at 1, 2, 3, 4, and 5 h intervals to monitor the progress of the inflammatory response and paw swelling. These obtained results were then compared against the outcomes from the negative control group. The gathered data from the experiment, relating to the impact of the newly synthesized compounds on paw edema, were carefully processed to derive the percentage of edema inhibition. Using the below equation, the percent inhibition was calculated. % Inhibition=Ce−Te/Ce×100
In the formula, ‘Ce’ refers to the control group paw edema volume, while ‘Te’ denotes test groups’ paw edema volume.

mice [3] = test: Acute toxicity in mice
Method: The synthesized compound was assessed for its acute toxicity using mice sourced from the National Institute of Health in Pakistan. The mice for the experiment were categorized into several groups. Some groups were designated to receive the test samples, and another was set as a control group. […]. These compounds were first dissolved in normal saline before being administered. […]. The mice were monitored for a period of 24 h to 4 weeks following the administration of the pivalate-based Michael product. The study closely observed the mice for any irregular behavior, such as ataxia, aggressive reactions, and potential allergic symptoms, among others. Furthermore, any harmful outcomes or lethality were also recorded. These observations and recorded adverse events were compared between the group treated with the test compound and the control group. These comparisons offer valuable insights into the toxicity levels of the newly synthesized compounds [47].

Structure (SMILES): CCOC(=O)C(C)(C)C1CC(=O)N(c2ccccc2)C1=O (centres unmarked) [MAK01, ethyl 2-(2,5-dioxo-1-phenylpyrrolidin-3-yl)-2-methylpropanoate]
- Latency Time (Seconds) on Hot Plate (mice [1]; dose 50 mg/kg, 30 min): 10.32 ± 0.82 s
- Latency Time (Seconds) on Hot Plate (mice [1]; dose 50 mg/kg, 60 min): 9.96 ± 0.16 s
- Latency Time (Seconds) on Hot Plate (mice [1]; dose 50 mg/kg, 90 min): 9.63 ± 0.26 s
- Latency Time (Seconds) on Hot Plate (mice [1]; dose 50 mg/kg, 120 min): 9.49 ± 0.25 s
- Latency Time (Seconds) on Hot Plate (mice [1]; dose 50 mg/kg, 150 min): 9.16 ± 0.81 s
- Latency Time (Seconds) on Hot Plate (mice [1]; dose 100 mg/kg, 30 min): 12.16 ± 0.51 Seconds and 12.16 ± 0.51 ^ns Seconds
- Latency Time (Seconds) on Hot Plate (mice [1]; dose 100 mg/kg, 60 min): 11.92 ± 0.71 s
- Latency Time (Seconds) on Hot Plate (mice [1]; dose 100 mg/kg, 90 min): 11.76 ± 0.87 ^ns Seconds
- Latency Time (Seconds) on Hot Plate (mice [1]; dose 100 mg/kg, 120 min): 11.14 ± 0.91 ^ns Seconds
- Latency Time (Seconds) on Hot Plate (mice [1]; dose 100 mg/kg, 150 min): 10.96 ± 0.74 s
- Latency Time (Seconds) on Hot Plate (mice [1]; dose 150 mg/kg, 30 min): 12.93 ± 0.45 Seconds and 12.93 ± 0.45 ^ns Seconds
- Latency Time (Seconds) on Hot Plate (mice [1]; dose 150 mg/kg, 60 min): 12.85 ± 0.84 ^ns Seconds
- Latency Time (Seconds) on Hot Plate (mice [1]; dose 150 mg/kg, 90 min): 12.42 ± 0.36 ^ns Seconds
- Latency Time (Seconds) on Hot Plate (mice [1]; dose 150 mg/kg, 120 min): 11.98 ± 0.74 ^ns Seconds
- Latency Time (Seconds) on Hot Plate (mice [1]; dose 150 mg/kg, 150 min): 11.76 ± 0.41 ^ns Seconds
- Paw Edema Inhibition in Percent ([2]; dose 10 mg/kg, 1 h): 30.3 ± 0.77 ^ns %
- Paw Edema Inhibition in Percent ([2]; dose 10 mg/kg, 2 h): 33.34 ± 0.98 %
- Paw Edema Inhibition in Percent ([2]; dose 10 mg/kg, 3 h): 19.62 ± 0.64 %
- Paw Edema Inhibition in Percent ([2]; dose 10 mg/kg, 4 h): 31.44 ± 0.74 %
- Paw Edema Inhibition in Percent ([2]; dose 10 mg/kg, 5 h): 31.22 ± 0.84 %
- Paw Edema Inhibition in Percent ([2]; dose 20 mg/kg, 1 h): 34.7 ± 0.74 ^ns %
- Paw Edema Inhibition in Percent ([2]; dose 20 mg/kg, 2 h): 34.7 ± 0.74% and 34.54 ± 0.76 %
- Paw Edema Inhibition in Percent ([2]; dose 20 mg/kg, 3 h): 21.42 ± 0.64 %
- Paw Edema Inhibition in Percent ([2]; dose 20 mg/kg, 4 h): 29.52 ± 0.63 %
- Paw Edema Inhibition in Percent ([2]; dose 20 mg/kg, 5 h): 31.85 ± 0.32 %
- Paw Edema Inhibition in Percent ([2]; dose 30 mg/kg, 1 h): 38.74 ± 0.81 ^ns %
- Paw Edema Inhibition in Percent ([2]; dose 30 mg/kg, 2 h): 39.20 ± 0.86 %
- Paw Edema Inhibition in Percent ([2]; dose 30 mg/kg, 3 h): 34.4 ± 0.64 %
- Paw Edema Inhibition in Percent ([2]; dose 30 mg/kg, 4 h): 37.64 ± 0.86 %
- Paw Edema Inhibition in Percent ([2]; dose 30 mg/kg, 5 h): 40.58 ± 0.84% and 40.58%
- Lethal dose (mice [3]; both, mouse, in vivo, po): ~1000 mg per kg of body weight
- Signs of toxicity (mice [3]; mice, oral, doses higher than 1000 mg per kg): distress, agitation, convulsions, discomfort, and abnormal behavior
